Activity calls are given as the source filed them. No cut-off for these calls is given here.
What was measured:
AHH-1 [1] = experiment: Antiradiation activity in human AHH-1 cells assessed as increase in cell viability at 2.5 to 10 micromol/L pre-treated with compound for 24 hrs followed by irradiation at 6 Gy measured after 24 hrs by CCK-8 assay; format: functional, cell-based; conditions: dose 2.5-10 µmol/L, time 48.0 hrs
Toll-like receptor 2 [2] = target: T1, Toll-like receptor 2 (Homo sapiens, UniProt O60603); experiment: Binding affinity to TLR2 (unknown origin) assessed as dissociation constant by SPR analysis
T1 sequence (O60603 whole entry): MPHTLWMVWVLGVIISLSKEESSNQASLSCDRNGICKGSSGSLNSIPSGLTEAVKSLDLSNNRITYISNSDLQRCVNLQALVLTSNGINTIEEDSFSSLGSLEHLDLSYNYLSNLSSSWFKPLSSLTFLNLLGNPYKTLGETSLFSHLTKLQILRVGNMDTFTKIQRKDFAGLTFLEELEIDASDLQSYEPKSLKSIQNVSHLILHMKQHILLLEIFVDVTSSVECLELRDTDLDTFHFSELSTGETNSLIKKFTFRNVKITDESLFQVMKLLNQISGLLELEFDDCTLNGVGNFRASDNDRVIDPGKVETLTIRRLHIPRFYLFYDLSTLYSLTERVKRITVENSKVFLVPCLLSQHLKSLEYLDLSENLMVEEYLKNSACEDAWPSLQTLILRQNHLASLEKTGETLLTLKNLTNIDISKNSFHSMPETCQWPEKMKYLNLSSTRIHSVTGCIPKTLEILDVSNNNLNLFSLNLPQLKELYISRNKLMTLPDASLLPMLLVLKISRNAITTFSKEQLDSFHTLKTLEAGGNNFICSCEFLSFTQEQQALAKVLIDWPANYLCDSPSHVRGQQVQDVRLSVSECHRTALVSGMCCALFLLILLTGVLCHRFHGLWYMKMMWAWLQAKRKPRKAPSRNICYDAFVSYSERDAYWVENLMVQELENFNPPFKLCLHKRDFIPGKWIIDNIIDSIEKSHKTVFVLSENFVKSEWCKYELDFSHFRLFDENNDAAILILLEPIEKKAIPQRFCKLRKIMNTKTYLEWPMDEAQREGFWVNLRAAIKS

Mus musculus [3] = experiment: Radioprotective activity in male C57BL/6J mouse assessed as survival rate at 250 mg/kg, ip pre-treated with compound for 24.25 hrs followed by irradiation at 8.5 Gy and measured for 30 days post irradiation relative to control; format: functional; conditions: time 744.25 hrs
Mus musculus [4] = experiment: Radioprotective activity in male C57BL/6J mouse assessed as increase in cell growth at 250 to 300 mg/kg, ip pre-treated with compound for 24.25 hrs followed by irradiation at 6.5 Gy and measured on 30 day post irradiation; format: functional, organism-based; conditions: dose 250-300 mg/kg, time 744.25 hrs
AHH-1 [5] = experiment: Induction of apoptosis in human AHH-1 cells assessed as late apoptotic cells pre-treated with compound for 24 hrs followed by irradiation at 6 Gy and measured after 24 hrs by Annexin V-FITC/PI staining based Flow cytometry analysis (reference value: 2.65%); format: functional; conditions: time 48 hrs
Mus musculus [6] = experiment: Radioprotective activity in male C57BL/6J mouse assessed as time required to increase in RBC count at 250 mg/kg, ip pre-treated with compound for 24.25 hrs followed by irradiation at 6.5 Gy and measured on 30 day post irradiation; format: functional; conditions: time 744.25 hrs
Mus musculus [7] = experiment: Radioprotective activity in male C57BL/6J mouse assessed as time required to increase in neutrophil count at 250 mg/kg, ip pre-treated with compound for 24.25 hrs followed by irradiation at 6.5 Gy and measured on 30 day post irradiation; format: functional; conditions: time 744.25 hrs
Mus musculus [8] = experiment: Radioprotective activity in male C57BL/6J mouse assessed as increase in crypts villus length in mouse jejunum at 250 mg/kg, ip pre-treated with compound for 24.25 hrs followed by irradiation at 13 Gy and measured on 3.5 day post irradiation; format: functional, organism-based; conditions: time 108.25 hrs
HUVEC [9] = experiment: Antiradiation activity in human HUVEC assessed as cell viability at 5 to 20 micromol/L pre-treated with compound for 24 hrs followed by irradiation at 8 Gy measured after 96 hrs by CCK-8 assay; format: functional, cell-based; conditions: dose 5-20 µmol/L, time 120.0 hrs
AHH-1 [10] = experiment: Antiradiation activity in human AHH-1 cells assessed as increase in cell viability at 2.5 micromol/L pre-treated with compound for 24 hrs followed by irradiation at 6 Gy measured after 24 hrs by CCK-8 assay; format: functional, cell-based; conditions: dose 2.5 µmol/L, time 48.0 hrs
AHH-1 [11] = experiment: Radioprotective activity against 6 Gy radiation-induced DNA damage in human AHH-1 cells assessed as attenuation of gamma-H2AX expression incubated for 0.5 to 2 hrs by immunohistochemical staining based confocal fluorescence microscopic analysis; format: functional, cell-based; conditions: time 0.5-2 hrs
HUVEC [12] = experiment: Upregulation of IL-6 secretion in HUVEC at 20 to 80 uM incubated for 24 hrs in presence of irradiation by ELISA; format: functional, cell-based; conditions: Homo sapiens, dose 20-80 µM
Mus musculus [13] = experiment: Radioprotective activity in male C57BL/6J mouse assessed as increase in body weight at 250 mg/kg, ip pre-treated with compound for 24.25 hrs followed by irradiation at 8.5 Gy and measured on day 18 post irradiation; format: functional, organism-based; conditions: time 456.25 hrs
AHH-1 [14] = experiment: Induction of DNA damage repair activity in 6 Gy radiation-induced human AHH-1 cells assessed as downregulation of P53 level pre-treated with compound for 24 hrs followed by irradiation by Co-immunoprecipitation analysis; format: functional, cell-based
AHH-1 [15] = experiment: Induction of apoptosis in human AHH-1 cells assessed as early apoptotic cells pre-treated with compound for 24 hrs followed by irradiation at 6 Gy and measured after 24 hrs by Annexin V-FITC/PI staining based Flow cytometry analysis (reference value: 8.15%); format: functional; conditions: time 48 hrs
HUVEC [16] = experiment: Antiradiation activity in human HUVEC assessed as cell viability at 5 to 20 micromol/L pre-treated with compound for 24 hrs followed by irradiation at 6 Gy measured after 96 hrs by CCK-8 assay; format: functional, cell-based; conditions: dose 5-20 µmol/L, time 120.0 hrs
Toll-like receptor 2 [17] = target: T1, Toll-like receptor 2; experiment: Binding affinity to TLR2 (unknown origin) by SPR analysis; conditions: filed as modulator, dose 312.5-10000 nM
Mus musculus [18] = experiment: Radioprotective activity in male C57BL/6J mouse assessed as increase in body weight at 250 mg/kg, ip pre-treated with compound for 24.25 hrs followed by irradiation at 8.5 Gy and measured on day 1 post irradiation; format: functional, organism-based; conditions: time 48.25 hrs
AHH-1 [19] = experiment: Induction of DNA damage repair activity in 6 Gy radiation-induced human AHH-1 cells assessed as downregulation of Bax level pre-treated with compound for 24 hrs followed by irradiation by Co-immunoprecipitation analysis; format: functional, cell-based
AHH-1 [20] = experiment: Cytotoxicity against human AHH-1 cells incubated for 24 to 96 hrs by CCK-8 assay; format: functional, cell-based
Mus musculus [21] = experiment: Radioprotective activity in male C57BL/6J mouse assessed as time required to increase in platelets at 250 mg/kg, ip pre-treated with compound for 24.25 hrs followed by irradiation at 6.5 Gy and measured on 30 day post irradiation; format: functional; conditions: time 744.25 hrs
AHH-1 [22] = experiment: Antiradiation activity in human AHH-1 cells assessed as increase in cell viability at 2.5 micromol/L pre-treated with compound for 24 hrs followed by irradiation at 8 Gy measured after 24 hrs by CCK-8 assay; format: functional, cell-based; conditions: dose 2.5 µmol/L, time 48.0 hrs
HUVEC [23] = experiment: Upregulation of MyD88 expression in HUVEC incubated for 24 hrs in presence of irradiation by Co-immunoprecipitation analysis; format: functional, cell-based; conditions: Homo sapiens
AHH-1 [24] = experiment: Antiradiation activity in human AHH-1 cells assessed as increase in cell viability at 2.5 to 10 micromol/L pre-treated with compound for 24 hrs followed by irradiation at 8 Gy measured after 24 hrs by CCK-8 assay; format: functional, cell-based; conditions: dose 2.5-10 µmol/L, time 48.0 hrs
HUVEC [25] = experiment: Upregulation of P65 expression in HUVEC incubated for 24 hrs in presence of irradiation by Co-immunoprecipitation analysis; format: functional, cell-based; conditions: Homo sapiens
AHH-1 [26] = experiment: Induction of apoptosis in human AHH-1 cells assessed as necrotic cells pre-treated with compound for 24 hrs followed by irradiation at 6 Gy and measured after 24 hrs by Annexin V-FITC/PI staining based Flow cytometry analysis (reference value: 5.37%); format: functional; conditions: time 48 hrs
AHH-1 [27] = experiment: Antiradiation activity in human AHH-1 cells assessed as increase in cell viability at 2.5 to 10 micromol/L pre-treated with compound for 24 hrs followed by irradiation at 4 Gy measured after 24 hrs by CCK-8 assay; format: functional, cell-based; conditions: dose 2.5-10 µmol/L, time 48.0 hrs
AHH-1 [28] = experiment: Antiradiation activity in human AHH-1 cells assessed as increase in cell viability at 2.5 micromol/L pre-treated with compound for 24 hrs followed by irradiation at 4 Gy measured after 24 hrs by CCK-8 assay; format: functional, cell-based; conditions: dose 2.5 µmol/L, time 48.0 hrs
Mus musculus [29] = experiment: Radioprotective activity in male C57BL/6J mouse assessed as attenuation of spleen atrophy at 250 mg/kg, ip pre-treated with compound for 24.25 hrs followed by irradiation at 13 Gy and measured on 3.5 day post irradiation; format: functional, organism-based; conditions: time 108.25 hrs
[30] = Cytotoxicity against HUVEC incubated for 24 to 96 hrs by CCK-8 assay; format: toxicity, cell-based; conditions: human, HUVEC cells
AHH-1 [31] = experiment: Induction of apoptosis in human AHH-1 cells assessed as viable cells pre-treated with compound for 24 hrs followed by irradiation at 6 Gy and measured after 24 hrs by Annexin V-FITC/PI staining based Flow cytometry analysis (reference value: 83.6%); format: functional; conditions: time 48 hrs
Mus musculus [32] = experiment: Radioprotective activity in male C57BL/6J mouse assessed as time required to increase in WBC count at 250 mg/kg, ip pre-treated with compound for 24.25 hrs followed by irradiation at 6.5 Gy and measured on 30 day post irradiation; format: functional; conditions: time 744.25 hrs

Structure (SMILES): N#Cc1ccc(CS(=O)(=O)c2cnc3ccccc3n2)cc1
- Activity (AHH-1 [1]): Active
- Kd (Toll-like receptor 2 [2]): 3.93 µM
- Activity (Mus musculus [3]): 100%
- Activity (Mus musculus [4]): Active
- Activity (AHH-1 [5]): 6.07%
- Time (Mus musculus [6]): 14 days
- Time (Mus musculus [7]): 14 days
- Activity (Mus musculus [8]): Active
- Activity (HUVEC [9]): Active
- Activity (AHH-1 [10]): Active
- Activity (AHH-1 [11]): Active
- Activity (HUVEC [12]): Active
- Activity (Mus musculus [13]): Active; Compound Showed Significant Regaining Effect
- Activity (AHH-1 [14]): Active
- Activity (AHH-1 [15]): 13.1%
- Activity (HUVEC [16]): Active
- Activity (Toll-like receptor 2 [17]): Dose-dependent-effect
- Activity (Mus musculus [18]): inactive
- Activity (AHH-1 [19]): Active
- IC50 (AHH-1 [20]): > 60 µM
- Time (Mus musculus [21]): 14 days
- Activity (AHH-1 [22]): Active
- Activity (HUVEC [23]): Active
- Activity (AHH-1 [24]): Active
- Activity (HUVEC [25]): Active
- Activity (AHH-1 [26]): 8.81%
- Activity (AHH-1 [27]): Active
- Activity (AHH-1 [28]): Active
- Activity (Mus musculus [29]): Active
- IC50 [30]: > 60 µM
- Activity (AHH-1 [31]): 72%
- Time (Mus musculus [32]): 10 days

— ChEMBL document CHEMBL6177953, “Discovery of a novel quinoxaline derivative modulator via a dual P53/TLR2 targeting strategy for the alleviation of radiation damage” (Eur J Med Chem, 2025)
